In one assay the target is LXRβ (Homo sapiens (Human), UniProt P55055). Kind of assay: In vitro assay LXRβ: PathHunter NHR CHO cells, LXRβ / Steroid Receptor Co-activator Peptide enzyme fragment complementation. It is filed as cell-based. The settings on record: PathHunter NHR CHO cells, full-length human LXRβ and SRCP, chemiluminescent signal; read-out: LXRβ PPI. A digest of the protocol: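 Enzyme fragment complementation read-out: CHO cells stably expressing ProLink-tagged full-length human LXRβ plus nuclear enzyme acceptor–SRCP fusion, seeded and held overnight at 37° C. Medium with charcoal-dextran filtered serum; final vehicle 1%. Chemiluminescence measured after signal generation.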
LXRβ, sequence (P55055 whole entry, the tested form may be a part): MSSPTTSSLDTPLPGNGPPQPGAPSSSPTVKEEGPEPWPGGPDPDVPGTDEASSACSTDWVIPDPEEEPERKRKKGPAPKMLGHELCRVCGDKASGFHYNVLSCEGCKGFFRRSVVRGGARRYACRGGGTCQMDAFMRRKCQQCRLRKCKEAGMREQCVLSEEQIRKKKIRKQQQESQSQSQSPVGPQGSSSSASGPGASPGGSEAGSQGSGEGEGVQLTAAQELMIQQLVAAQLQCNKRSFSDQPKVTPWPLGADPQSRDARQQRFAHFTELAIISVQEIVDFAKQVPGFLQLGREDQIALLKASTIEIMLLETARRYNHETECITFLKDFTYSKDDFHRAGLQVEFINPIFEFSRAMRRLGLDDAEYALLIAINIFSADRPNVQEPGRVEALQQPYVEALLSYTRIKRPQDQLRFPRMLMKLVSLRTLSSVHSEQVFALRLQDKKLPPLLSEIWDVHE

A further assay has as its target SREBP-2 (Homo sapiens (Human), UniProt Q12772). Kind of assay: In vitro assay SREBP-2: PathHunter U2OS SREBP-2 Nuclear Translocation Cell Line, U18666A-stimulated. The format is cell-based. The settings on record: PathHunter U2OS SREBP-2 nuclear translocation cells, U18666A 10 μM, overnight (16 hours).

The structures appear in SMILES notation.

By IC50 is commonly meant the concentration that gives 50% inhibition.

For the compound `C[C@H](CCC(=O)N1CCN(C(=O)c2nnn(C)n2)CC1)[C@H]1CC[C@H]2[C@@H]3CC=C4C[C@@H](O)CC[C@]4(C)[C@H]3CC[C@]12C` [Example 342, (R)-4-((3S,8S,9S,10R,13R,14S,17R)-3-hydroxy-10,13-dimethyl-2,3,4,7,8,9,10,11,12,13,14,15,16,17-tetradecahydro-1H-cyclopenta[a]phenanthren-17-yl)-1-(4-(2-methyl-2H-tetrazole-5-carbonyl)piperazin-1-yl)pentan-1-one], on LXRβ, the EC50 is over 10000 nM. For the same compound, at SREBP-2, the IC50 was under 250 nM.
In the case of `CCC1(O)CCN(C(=O)OC[C@@H](C)[C@H]2CC[C@H]3[C@@H]4CC=C5C[C@@H](O)CC[C@]5(C)[C@H]4CC[C@]23C)CC1` [Example 348, (S)-2-((3S,8S,9S,10R,13S,14S,17R)-3-hydroxy-10,13-dimethyl-2,3,4,7,8,9,10,11,12,13,14,15,16,17-tetradecahydro-1H-cyclopenta [a]phenanthren-17-yl)propyl 4-ethyl-4-hydroxypiperidine-1-carboxylate], at LXRβ, the EC50 is over 10000 nM. The compound also gave an IC50 on SREBP-2 of under 250 nM.
In the case of `COCCN(C)C(=O)OC[C@@H](C)[C@H]1CC[C@H]2[C@@H]3CC=C4C[C@@H](O)CC[C@]4(C)[C@H]3CC[C@]12C` [Example 349, (S)-2-((3S,8S,9S,10R,13S,14S,17R)-3-hydroxy-10,13-dimethyl-2,3,4,7,8,9,10,11,12,13,14,15,16,17-tetradecahydro-1H-cyclopenta[a]phenanthren-17-yl)propyl (2-methoxyethyl)(methyl)carbamate], the EC50 at LXRβ is over 10000 nM. Moreover, the IC50 against SREBP-2 was under 250 nM.
Turning to `C[C@H](COC(=O)N(C)CCO)[C@H]1CC[C@H]2[C@@H]3CC=C4C[C@@H](O)CC[C@]4(C)[C@H]3CC[C@]12C` [Example 350, (2S)-2-[(1R,3aS,3bS,7S,9aR,9bS,11aS)-7-hydroxy-9a,11a-dimethyl-1H,2H,3H,3aH,3bH,4H,6H,7H,8H,9H,9aH,9bH,10H,11H,11aH-cyclopenta[a]phenanthren-1-yl]propyl N-(2-hydroxyethyl)-N-methylcarbamate], the EC50 at LXRβ is over 10000 nM. On SREBP-2, this compound yielded an IC50 of 250 to 1000 nM.
The matching figures for `CNC(=O)OC[C@@H](C)[C@H]1CC[C@H]2[C@@H]3CC=C4C[C@@H](O)CC[C@]4(C)[C@H]3CC[C@]12C` [Example 351, (S)-2-((3S,8S,9S,10R,13S,14S,17R)-3-hydroxy-10,13-dimethyl-2,3,4,7,8,9,10,11,12,13,14,15,16,17-tetradecahydro-1H-cyclopenta[a]phenanthren-17-yl)propyl methylcarbamate]: over 10000 nM and under 250 nM.
`CCN(C)C(=O)OC[C@@H](C)[C@H]1CC[C@H]2[C@@H]3CC=C4C[C@@H](O)CC[C@]4(C)[C@H]3CC[C@]12C` [Example 352, (2S)-2-[(1R,3aS,3bS,7S,9aR,9bS,11aS)-7-hydroxy-9a,11a-dimethyl-1H,2H,3H,3aH,3bH,4H,6H,7H,8H,9H,9aH,9bH,10H,11H,11aH-cyclopenta[a]phenanthren-1-yl]propyl N-ethyl-N-methylcarbamate]: at LXRβ, the EC50 lay in the range of 1000 to 10000 nM. This compound registered an IC50 against SREBP-2 of under 250 nM.
Take `CCn1c(CC[C@@H](C)[C@H]2CC[C@H]3[C@@H]4CC=C5C[C@@H](O)CC[C@]5(C)[C@H]4CC[C@]23C)n[nH]c1=S` [Example 353, 4-ethyl-5-((R)-3-((3S,8S,9S,10R,13R,14S,17R)-3-hydroxy-10,13-dimethyl-2,3,4,7,8,9,10,11,12,13,14,15,16,17-tetradecahydro-1H-cyclopenta[a]phenanthren-17-yl)butyl)-2,4-dihydro-3H-1,2,4-triazole-3-thione]: the EC50 at LXRβ is over 10000 nM. This compound also had an IC50 on SREBP-2 of under 250 nM.
The matching figures for `C[C@H](CCC(=O)N1CCNS(=O)(=O)CC1)[C@H]1CC[C@H]2[C@@H]3CC=C4C[C@@H](O)CC[C@]4(C)[C@H]3CC[C@]12C` [Example 354, 5-[(4R)-4-[(1R,3aS,3bS,7S,9aR,9bS,11aR)-7-hydroxy-9a,11a-dimethyl-1H,2H,3H,3aH,3bH,4H,6H,7H,8H,9H,9aH,9bH,10H,11H,11aH-cyclopenta[a]phenanthren-1-yl]pentanoyl]-1λ^6,2,5-thiadiazepane-1,1-dione]: over 10000 nM and under 250 nM.
Taken in the same sequence, the figures for `C[C@H](CCC(=O)N1CCS(=O)(=O)[C@H](C)C1)[C@H]1CC[C@H]2[C@@H]3CC=C4C[C@@H](O)CC[C@]4(C)[C@H]3CC[C@]12C` [Example 356, (2R)-4-[(4R)-4-[(1R,3aS,3bS,7S,9aR,9bS,11aR)-7-hydroxy-9a,11a-dimethyl-1H,2H,3H,3aH,3bH,4H,6H,7H,8H,9H,9aH,9bH,10H,11H,11aH-cyclopenta[a]phenanthren-1-yl]pentanoyl]-2-methyl-1 λ^6-thiomorpholine-1,1-dione] were over 10000 nM and under 250 nM.
Taken in the same sequence, the figures for `C[C@H](CCC(=O)N1CCS(=O)(=O)C1)[C@H]1CC[C@H]2[C@@H]3CC=C4C[C@@H](O)CC[C@]4(C)[C@H]3CC[C@]12C` [Example 357, (R)-1-(1,1-dioxidothiazolidin-3-yl)-4-((3S,8S,9S,10R,13R,14S,17R)-3-hydroxy-10,13-dimethyl-2,3,4,7,8,9,10,11,12,13,14,15,16,17-tetradecahydro-1H-cyclopenta[a]phenanthren-17-yl)pentan-1-one] were over 10000 nM and under 250 nM.
Regarding `C[C@H](CCC(=O)N1CCN(S(=O)(=O)N(C)C)CC1)[C@H]1CC[C@H]2[C@@H]3CC=C4C[C@@H](O)CC[C@]4(C)[C@H]3CC[C@]12C` [Example 358, 4-((R)-4-((3S,8S,9S,10R,13R,14S,17R)-3-hydroxy-10,13-dimethyl-2,3,4,7,8,9,10,11,12,13,14,15,16,17-tetradecahydro-1H-cyclopenta[a]phenanthren-17-yl)pentanoyl)-N,N-dimethylpiperazine-1-sulfonamide], the EC50 at LXRβ is over 10000 nM. Also, the IC50 against SREBP-2 was under 250 nM.
Take `C[C@H](CCC(=O)N1CCN(S(N)(=O)=O)CC1)[C@H]1CC[C@H]2[C@@H]3CC=C4C[C@@H](O)CC[C@]4(C)[C@H]3CC[C@]12C` [Example 359, 4-[(4R)-4-[(1R,3aS,3bS,7S,9aR,9bS,11aR)-7-hydroxy-9a,11a-dimethyl-1H,2H,3H,3aH,3bH,4H,6H,7H,8H,9H,9aH,9bH,10H,11H,11aH-cyclopenta[a]phenanthren-1-yl]pentanoyl]piperazine-1-sulfonamide]: at LXRβ, the EC50 is over 10000 nM. For the same compound, the IC50 against SREBP-2 was under 250 nM.
The matching figures for `COC(=O)N1CCN(C(=O)CC[C@@H](C)[C@H]2CC[C@H]3[C@@H]4CC=C5C[C@@H](O)CC[C@]5(C)[C@H]4CC[C@]23C)CC1` [Example 360, methyl 4-((R)-4-((3S,8S,9S,10R,13R,14S,17R)-3-hydroxy-10,13-dimethyl-2,3,4,7,8,9,10,11,12,13,14,15,16,17-tetradecahydro-1H-cyclopenta[a]phenanthren-17-yl)pentanoyl)piperazine-1-carboxylate]: over 10000 nM and under 250 nM.

The record behind these values is patent US20230340011A1 (Asteroid Therapeutics, priority 2022, published 2023).
